The source made the active and inactive calls. The rule behind the calls is not given here.
Columns and labels:
[1] = tested on: MDA-MB-231; test: Antitumor activity against human MDA-MB-231 cells harboring wild-type BRCA incubated for 72 hrs by MTT assay; type: functional, cell-based; conditions: MDA-MB-231, 72 h
[2] = tested on: MDA-MB-468; test: Antitumor activity against human MDA-MB-468 cells harboring wild-type BRCA incubated for 72 hrs by MTT assay; type: functional, cell-based; conditions: MDA-MB-468, 72 h
[3] = tested on: HCC1937; test: Antitumor activity against BRCA 1-deficient human HCC1937 cells incubated for 72 hrs by MTT assay; type: functional, cell-based; conditions: HCC1937, 72 h
[4] = tested on: MDA-MB-436; test: Antitumor activity against BRCA 1-deficient human MDA-MB-436 cells incubated for 72 hrs by MTT assay; type: functional, cell-based; conditions: MDA-MB-436, 72 h
[5] = Cytotoxicity against human MCF-10A cells incubated for 72 hrs by MTT assay; type: toxicity, cell-based
[6] = Toxicity in BALB/c nude mouse xenografted with human MDA-MB-231 cells assessed as body weight change at 20 mg/kg, ip administered on every 2 days for 28 days; type: organism-based; conditions: in vivo, 672 h, time 28 day
[7] = Toxicity in BALB/c nude mouse xenografted with human MDA-MB-231 cells assessed as drug tolerance at 20 mg/kg, ip administered on every 2 days for 28 days; type: organism-based; conditions: in vivo, 672 h, time 28 day
[8] = tested on: MDA-MB-231; test: Antitumor activity against human MDA-MB-231 cells xenografted in BALB/c nude mouse assessed as increase in apoptotic cells at 20 mg/kg, ip administered on every 2 days for 28 days by H and E staining based analysis; type: functional, organism-based; conditions: time 28.0 day
[9] = tested on: MDA-MB-231; test: Antitumor activity against human MDA-MB-231 cells xenografted in BALB/c nude mouse assessed as increase in necrotic cells at 20 mg/kg, ip administered on every 2 days for 28 days by H and E staining based analysis; type: functional, organism-based; conditions: time 28.0 day
[10] = tested on: MDA-MB-231; test: Antitumor activity against human MDA-MB-231 cells xenografted in BALB/c nude mouse assessed as decrease in Ki-67 expression at 20 mg/kg, ip administered on every 2 days for 28 days by H and E staining based analysis; type: functional, organism-based; conditions: time 28.0 day
[11] = tested on: MDA-MB-231; test: Induction of apoptosis in human MDA-MB-231 cells as increase in red fluorescence at 5 uM incubated for 24 hrs by Calcein AM/PI staining based confocal microscopy; type: functional, cell-based
[12] = tested on: MDA-MB-231; test: Effect on RAF expression in human MDA-MB-231 cells at 5 uM incubated for 24 hrs by Western blot analysis; type: functional, cell-based
[13] = tested on: MDA-MB-231; test: Effect on CRAF expression in human MDA-MB-231 cells at 5 uM incubated for 24 hrs by Western blot analysis; type: functional, cell-based
[14] = tested on: MDA-MB-231; test: Effect on MEK phosphorylation in human MDA-MB-231 cells at 5 uM incubated for 24 hrs by Western blot analysis; type: functional, cell-based
[15] = tested on: MDA-MB-231; test: Effect on ERK1/2 phosphorylation in human MDA-MB-231 cells at 5 uM incubated for 24 hrs by Western blot analysis; type: functional, cell-based
[16] = tested on: MDA-MB-231; test: Induction of DNA damage in human MDA-MB-231 cells assessed as increase in olive tail moments at 5 uM incubated for 24 hrs by Comet assay; type: functional, cell-based
[17] = tested on: MDA-MB-231; test: Induction of ROS generation in human MDA-MB-231 cells at 5 uM incubated for 24 hrs by DCFH-DA staining based flow cytometric analysis; type: functional, cell-based
[18] = biological target: Poly [ADP-ribose] polymerase 1 (Homo sapiens, UniProt P09874); test: Inhibition of PARP1 (unknown origin) using histone as substrate incubated for 60 mins by ELISA
[19] = tested on: MDA-MB-231; test: Induction of DNA damage in human MDA-MB-231 cells assessed as increase in gamma-H2AX level at 5 uM incubated for 24 hrs by immunofluorescence based analysis; type: functional, cell-based
[20] = tested on: MDA-MB-231; test: Induction of apoptosis in human MDA-MB-231 cells at 5 uM incubated for 24 hrs by Annexin V-FITC/PI staining based flow cytometry relative to control; type: functional
[21] = Induction of depolarization of mitochondrial membrane potential in human MDA-MB-231 cells at 5 uM incubated for 24 hrs by JC-1 staining based flow cytometry relative to control; type: functional
[22] = tested on: MDA-MB-231; test: Anti-migration activity in human MDA-MB-231 cells assessed as wound closure area at 1 uM incubated for 24 hrs by wound healing assay (reference value: 75.6 %); type: functional
[23] = tested on: MDA-MB-231; test: […] activity in human MDA-MB-231 cells at 1 uM incubated for 24 hrs by wound healing assay; type: functional, cell-based
[24] = tested on: MDA-MB-231; test: Induction of apoptosis in human MDA-MB-231 cells assessed as increase in Bax level at 5 uM incubated for 24 hrs by Western blot analysis; type: functional, cell-based
[25] = tested on: MDA-MB-231; test: Induction of apoptosis in human MDA-MB-231 cells assessed as decrease in Bcl-2 level at 5 uM incubated for 24 hrs by Western blot analysis; type: functional, cell-based

Chain of Poly [ADP-ribose] polymerase 1 (P09874 whole entry): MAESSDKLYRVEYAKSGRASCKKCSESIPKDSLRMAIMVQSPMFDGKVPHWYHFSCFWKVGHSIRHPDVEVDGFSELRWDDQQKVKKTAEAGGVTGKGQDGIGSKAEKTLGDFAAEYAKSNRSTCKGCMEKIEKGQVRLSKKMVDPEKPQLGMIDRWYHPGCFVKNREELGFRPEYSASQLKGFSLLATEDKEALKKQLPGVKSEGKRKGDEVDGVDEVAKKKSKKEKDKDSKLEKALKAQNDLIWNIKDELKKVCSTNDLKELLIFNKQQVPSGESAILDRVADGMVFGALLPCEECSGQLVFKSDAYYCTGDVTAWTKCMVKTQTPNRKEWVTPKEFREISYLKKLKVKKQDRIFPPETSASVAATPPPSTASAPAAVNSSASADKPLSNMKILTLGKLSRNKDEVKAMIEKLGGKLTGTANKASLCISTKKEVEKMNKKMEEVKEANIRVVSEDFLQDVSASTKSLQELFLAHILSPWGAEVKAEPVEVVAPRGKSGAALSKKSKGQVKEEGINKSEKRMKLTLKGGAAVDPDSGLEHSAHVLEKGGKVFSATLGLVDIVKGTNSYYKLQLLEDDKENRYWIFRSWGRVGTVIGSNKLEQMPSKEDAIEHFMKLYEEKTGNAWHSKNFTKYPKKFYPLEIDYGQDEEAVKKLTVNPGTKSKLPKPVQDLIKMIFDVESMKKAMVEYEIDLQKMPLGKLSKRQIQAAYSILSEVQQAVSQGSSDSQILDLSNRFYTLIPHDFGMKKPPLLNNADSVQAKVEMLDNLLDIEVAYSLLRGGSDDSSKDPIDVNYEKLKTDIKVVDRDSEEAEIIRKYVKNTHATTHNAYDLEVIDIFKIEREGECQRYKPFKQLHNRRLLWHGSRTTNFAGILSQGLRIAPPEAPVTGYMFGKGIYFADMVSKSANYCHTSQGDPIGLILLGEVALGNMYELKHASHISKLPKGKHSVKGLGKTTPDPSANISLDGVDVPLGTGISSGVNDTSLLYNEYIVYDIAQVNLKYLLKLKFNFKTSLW

Row | IC50 [1] [nM] | IC50 [2] [µM] | IC50 [3] [nM] | IC50 [4] [nM] | SMILES | IC50 at 72 h [5] [µM] | other results
1 | 1280 | 1.37 | 1990 | 1440 | COc1cc(OC)c(/C=C/S(=O)(=O)Cc2ccc(OC)c(NCC(=O)N3CCN(C(=O)c4cc(Cc5n[nH]c(=O)c6ccccc56)ccc4F)CC3)c2)c(OC)c1 | > 40 | –
2 | 25500 | 14.8 | 5370 | 4250 | O=C(c1cc(Cc2n[nH]c(=O)c3ccccc23)ccc1F)N1CCN(C(=O)C2CC2)CC1 [OLAPARIB] | > 40 | Activity [6]: Non-Toxic; Activity [7]: Non-Toxic; Activity [8]: Active; Activity [9]: Active; Activity [10]: Active
3 | 21000 | 12.3 | 3210 | 2610 | O=C(c1cc(Cc2n[nH]c(=O)c3ccccc23)ccc1F)N1CCNCC1 | > 40 | Activity [11]: inactive; Activity [12]: inactive; Activity [13]: inactive; Activity [14]: inactive; Activity [15]: inactive; Activity [16]: inactive; Activity [17]: inactive; IC50 [18]: 39.5 nM; Activity [19]: inactive; Activity [20]: 21.14%; Activity [21]: 23.88%; Activity [22]: 66.1%; Activity [23]: inactive; Activity [24]: Active; Activity [25]: Active

Continued, compound first:

Row | SMILES | IC50 [1] [nM] | IC50 [2] [µM] | IC50 [3] [nM] | IC50 [4] [nM] | IC50 at 72 h [5] [µM] | other results
4 | COc1cc(OC)c(/C=C/S(=O)(=O)Cc2ccc(OC)c(NC(=O)CCC(=O)N3CCN(C(=O)c4cc(Cc5n[nH]c(=O)c6ccccc56)ccc4F)CC3)c2)c(OC)c1 | 1190 | 2.94 | 1270 | 1550 | > 40 | –
5 | COc1cc(OC)c(/C=C/S(=O)(=O)Cc2ccc(OC)c(NC(=O)CCCC(=O)O)c2)c(OC)c1 | 3570 | 5.76 | 3920 | 4820 | > 40 | –
6 | COc1cc(OC)c(/C=C/S(=O)(=O)Cc2ccc(OC)c(NC(=O)CCC(=O)O)c2)c(OC)c1 | 2080 | 3.19 | 2170 | 2090 | > 40 | –

Source: ChEMBL document CHEMBL6127102 (Bioorg Med Chem, 2024)
